Experimental data taken from patent US20250059172A1, “INDAZOLE COMPOUND AND PHARMACEUTICAL” (NIPPON SHINYAKU CO., LTD., priority 2021, published 2025).

Assays:
human mPGES-1 = human mPGES-1 (Homo sapiens (Human), UniProt O14684); experiment: mPGES-1 inhibitory activity test; assay type: biochemical; details: for inhibition at 0.01 µM: 10 nM test compound; for inhibition at 0.1 µM: 100 nM test compound
In short: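 PGE2 formation was quantified by HTRF and reported as percent inhibition at 10 and 100 nM compound or as IC50. The 60-second reaction at 4° C used 1 μM PGH2, after a 20-minute 4° C preincubation of compound (1% DMSO final) with glutathione-supplemented (2.5 mM, pH 7.4) microsomes. The microsomes were from transiently transfected CHO-K1 cells expressing human mPGES-1.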

human A549 cells = experiment: Inhibition test of PGE2 production using human A549 cells; assay type: cell-based; details: IL-1β stimulated A549 cells, 24 h, PGE2 by HTRF, read-out: A549 cell inhibition of PGE2 production IC50
In short: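 A549 cells were preincubated 60 min with compound in RPMI/3% FBS (0.1% DMSO final), then stimulated with IL-1β (5 ng/well) for 24 h at 37°C. PGE2 was measured by HTRF and PGF2a by EIA; activity was normalized to stimulated minus unstimulated controls, and IC50 derived.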

Chain of human mPGES-1 (O14684 whole entry): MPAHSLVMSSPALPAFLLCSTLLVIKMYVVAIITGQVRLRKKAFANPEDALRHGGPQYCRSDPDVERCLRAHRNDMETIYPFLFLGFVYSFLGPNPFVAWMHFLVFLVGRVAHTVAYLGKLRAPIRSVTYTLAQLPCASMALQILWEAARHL

| SMILES | inhibition at 0.01 µM (human mPGES-1) [%] | IC50 (human A549 cells) [nM] | inhibition at 0.1 µM (human mPGES-1) [%] |
| --- | --- | --- | --- |
| CC(C)(C)CC(=O)NCc1ccc(Cl)c(C(=O)Nc2cccc3c2cnn3-c2ccc(Cl)cc2)c1 [Example 145, 2-Chloro-N-[1-(4-chlorophenyl)-1H-indazol-4-yl]-5-([(3,3-dimethylbutanoyl)amino]methyl)benzamide] | 92 | 6.3 | – |
| O=C(Nc1cccc2c1cnn2-c1ccc(Cl)cc1)c1cc(CNC(=O)C2(C(F)(F)F)CC2)ccc1Cl [Example 147, 2-Chloro-N-[1-(4-chlorophenyl)-1H-indazol-4-yl]-5-[({[1-(trifluoromethyl)cyclopropyl]carbonyl}amino)methyl]benzamide] | 85 | 0.9 | – |
| COCC(=O)NCc1ccc(Cl)c(C(=O)Nc2cccc3c2cnn3-c2ccc(Cl)cc2)c1 [Example 148, 2-Chloro-N-[1-(4-chlorophenyl)-1H-indazol-4-yl]-5-([(methoxyacetyl)amino]methyl)benzamide] | 70 | 4.2 | 100 |
| CC(C)(CO)C(=O)NCc1ccc(Cl)c(C(=O)Nc2cccc3c2cnn3-c2ccc(Cl)cc2)c1 [Example 149, 2-Chloro-N-[1-(4-chlorophenyl)-1H-indazol-4-yl]-5-{[(3-hydroxy-2,2-dimethylpropanoyl)amino]methyl}benzamide] | 94 | 3.2 | – |
| O=C(Nc1cccc2c1cnn2-c1ccc(Cl)cc1)c1cc(CNS(=O)(=O)C2CC2)ccc1Cl [Example 150, 2-Chloro-N-[1-(4-chlorophenyl)-1H-indazol-4-yl]-5-([(cyclopropylsulfonyl)amino]methyl)benzamide] | 72 | 5.9 | – |
| CC(C)(C)CC(=O)NCc1ccc(Cl)c(C(=O)Nc2cccc3c2cnn3-c2ccc(F)cc2)c1 [Example 151, 2-Chloro-5-{[(3,3-dimethylbutanoyl)amino]methyl}-N-[1-(4-fluorophenyl)-1H-indazol-4-yl]benzamide] | 100 | 14.3 | – |
| O=C(Nc1cccc2c1cnn2-c1ccc(F)cc1)c1cc(CNC(=O)C2CCCC2)ccc1Cl [Example 152, 2-Chloro-5-{[(cyclopentylcarbonyl)amino]methyl}-N-[1-(4-fluorophenyl)-1H-indazol-4-yl]benzamide] | 58 | 7.6 | – |
| O=C(Nc1cccc2c1cnn2-c1ccc(F)cc1)c1cc(CNC(=O)C2(C(F)(F)F)CC2)ccc1Cl [Example 153, 2-Chloro-N-[1-(4-fluorophenyl)-1H-indazol-4-yl]-5-[({[1-(trifluoromethyl)cyclopropyl]carbonyl}amino)methyl]benzamide] | 100 | 1 | – |
| O=C(Nc1cccc2c1cnn2-c1ccc(F)cc1)c1cc(CNC(=O)C2(O)CC2)ccc1Cl [Example 154, 2-Chloro-N-[1-(4-fluorophenyl)-1H-indazol-4-yl]-5-({[(1-hydroxycyclopropyl)carbonyl]amino}methyl)benzamide] | 58 | 17.6 | 89 |
| COCC(=O)NCc1ccc(Cl)c(C(=O)Nc2cccc3c2cnn3-c2ccc(F)cc2)c1 [Example 155, 2-Chloro-N-[1-(4-fluorophenyl)-1H-indazol-4-yl]-5-([(methoxyacetyl)amino]methyl)benzamide] | 100 | 5.9 | – |
| CC(C)(CO)C(=O)NCc1ccc(Cl)c(C(=O)Nc2cccc3c2cnn3-c2ccc(F)cc2)c1 [Example 156, 2-Chloro-N-[1-(4-fluorophenyl)-1H-indazol-4-yl]-5-([(3-hydroxy-2,2-dimethylpropanoyl)amino]methyl)benzamide] | 63 | 7.1 | 86 |
| O=C(Nc1cccc2c1cnn2-c1ccc(F)cc1)c1cc(CNS(=O)(=O)C2CC2)ccc1Cl [Example 157, 2-Chloro-5-{[(cyclopropylsulfonyl)amino]methyl}-N-[1-(4-fluorophenyl)-1H-indazol-4-yl]benzamide] | 100 | 14.6 | – |
